Results taken from patent publication US20190233899A1, “METHODS FOR SELECTING TREATMENT REGIMENS AND PREDICTING OUTCOMES IN CANCER PATIENTS” (BIOMEDICA DIAGNOSTICS INC., priority 2002, published 2019).

What was measured:
[1] = First study: Cox proportional hazards analysis of disease-free survival in primary breast cancer patients (n = 761, Munich); assay type: in vivo, human; conditions: primary breast cancer n = 761, median follow-up 48 months; therapy yes vs no
Excerpt: The first study evaluated the clinical relevance of the combination of uPA and PAI-1 in 761 individual primary breast cancer patients (Table 3). Patients either underwent a modified radical mastectomy (n=389) or breast conserving surgery with subsequent breast irradiation (n=372) at the Department of Obstetrics and Gynecology, Technical University of Munich, Germany, between 1987 and 1998. Informed consent for analysis of tumor biological factors was obtained at primary surgery. Therapy decisions were based solely on consensus recommendations at the time but not on uPA and PAI-1. For 745 patients, information on adjuvant systemic therapy was available (Table 3). Median age of the patients at time of primary surgery was 56 years (range: 28-92 years). […] In addition to the collective as a whole, the subset of node-negative patients without adjuvant systemic therapy (n=269; median follow-up 60 months) was analyzed separately (Table 3). […]
In studies involving patients from Munich, uPA and PAI-1 antigen have been prospectively measured by ELISA (uPA: Imubind #894. PAI-1: Imubind #821; both from American Diagnostica Inc., Greenwich, Conn.) since 1987 in all primary breast cancer patients treated at our institution. […] The antigen levels in detergent extracts of breast cancer tissue are expressed as ng of analyte per mg of tissue protein. […]

[2] = Second study: Cox proportional hazards analysis of disease-free survival stratified by data set, primary breast cancer patients (Munich and Rotterdam, n = 3424); assay type: in vivo, human; conditions: for Hazard ratio (95% Confidence interval), multivariate Cox model (DFS), main effect: yes (1) vs. no (0)
Excerpt: The second study involved a total of 3424 primary breast cancer patients from two different data sets. One set was collected from the Department of Obstetrics and Gynecology, Technical University of Munich, Germany, and the other was from the Department of Medical Oncology, Rotterdam Cancer Institute and University Hospital Rotterdam, the Netherlands. Patients had been treated for primary breast cancer between 1987 and 1999. Treatment decisions with regard to primary surgery and adjuvant systemic therapy were based primarily on consensus recommendations at the time. Treatment strategies differed between Munich and Rotterdam, particularly regarding administration of adjuvant systemic therapy to node-positive patients (Table 4b) (Harbeck et al., 2002, J. Clin. Oncology 20:1000-1009; Foekens et al., 2000, Cancer Res. 60:636-643). Of those patients treated by adjuvant chemotherapy, the majority received CMF (Rotterdam: 76%, Munich: 65%); about one-fifth in both collectives received anthracycline-containing regimens (Rotterdam: 24%, Munich: 21%); and the rest of the Munich patients were treated by other chemotherapy regimens. The endocrine treatment used in both collectives was tamoxifen.
Median age of the patients at time of primary surgery was 56 years (range: 22-94 years). Both data sets contained established clinical and histo-morphological factors such as number of involved axillary lymph nodes, pT stage, estrogen receptor status, progesterone receptor status, exposure to adjuvant chemotherapy (CT), adjuvant endocrine therapy (HT), or adjuvant radiotherapy (RT), as well as uPA and PAI-1 measurements. Since the scoring systems for assessment of grade differed substantially between the centers and could thus represent different biological tumor characteristics, grade was not included in the combined stratified analysis. The variables were re-coded as described below in Section 6.1.3. Patients with an uncertain number of affected lymph nodes were included for computing the univariate distributions of ranked variables but not in multivariate survival analysis. Forty-five Rotterdam patients with an uncertain number of affected lymph nodes and three Munich patients with missing information on chemotherapy were not included. At the time of primary therapy, no patient had any clinical or radiological evidence of distant metastases. Follow-up data were obtained at regular intervals. Median follow-up time of all patients still alive at time of analysis was 83 months (range: 1-183 months). Within the follow-up period, 1319 patients (39%) experienced disease recurrence and 1200 patients (35%) died.
In studies involving patients from Munich, uPA and PAI-1 antigen have been prospectively measured by ELISA (uPA: Imubind #894. PAI-1: Imubind #821; both from American Diagnostica Inc., Greenwich, Conn.) since 1987 in all primary breast cancer patients treated at our institution. (Jänicke et al., 1994, Cancer Res. 54: 2527-2530). The antigen levels in detergent extracts of breast cancer tissue are expressed as ng of analyte per mg of tissue protein. In the study involving Rotterdam patients, uPA and PAI-1 antigen were measured by ELISA, employing the same antibodies as above, in cytosol preparations of the primary tumor as described by Foekens et al., 2000, Cancer Res., 60:636-643.
Due to differences in measurement techniques between the Munich and Rotterdam data sets, data re-coding was required. For the laboratory measurements of uPA, PAI-1, Estrogen receptor, and progesterone receptor, fractional ranks were computed with respect to each distribution. Fractional ranks also keep the variables on a convenient scale from zero to one, thus facilitating comparison of the […] coefficients of different factors. In particular, ranked estrogen receptor and progesterone receptor measurements were included as continuous variables in the statistical models, even though biochemical and immunohistochemical assays were used. […]

In the case of `CC/C(=C(\c1ccccc1)c1ccc(OCCN(C)C)cc1)c1ccccc1` [Adjuvant endocrine therapy, tamoxifen], the “Disease-free survival (DFS) multivariate Relative risk (95% Confidence interval)” value [1] is reported as 0.5 (0.3-0.7), the “HR (DFS) of therapy, separate Cox model” value ([2]; 0-3 affected lymph nodes, high-uPA/PAI-1 subgroup n=1174) is reported as 0.51 (0.33-0.78) and the “95% CI for the HR (DFS) of therapy, separate Cox model” value ([2]; 0-3 affected lymph nodes, low-uPA/PAI-1 group n=1418, not significant) is reported as 0.59-1.44. For the same molecule, the “HR (DFS) of therapy, separate Cox regression (2-stage model)” value ([2]; 4 or more affected nodes, low-uPA/PAI-1 subgroup) was 0.62 (95% CI, 0.43-0.90), the “HR (DFS) of therapy, separate Cox regression model” value ([2]; 4 or more nodes, high uPA/PAI-1) was 0.68 (95% CI, 0.49-0.95) and the “Hazard ratio (95% Confidence interval), multivariate Cox model (DFS), main effect” value (“Hazard ratio (95% Confidence interval)” for short) ([2]; all patients n = 3,376) was 0.68 (0.56-0.82). For the same molecule, the “Hazard ratio (95% Confidence interval)” value ([2]; all patients n = 3,376, listed as HT) was 0.68, the “HR (DFS) due to therapy, separate multivariate Cox model” value ([2]; all patients, high-uPA/PAI-1 subgroup) was 0.63 and the “HR (DFS) due to therapy, separate multivariate Cox model” value ([2]; all patients, low-uPA/PAI-1 subgroup) was 0.74. For the same molecule, the “95% CI for HR of interaction HT with uPA/PAI-1 (DFS)” value ([2]; all patients, no significant interaction) was 0.66-1.28, the “Hazard ratio (95% Confidence interval)” value ([2]; patients with 0-3 involved axillary nodes n = 2592) was 0.66 (0.48-0.90) and the “Hazard ratio (95% Confidence interval)” value ([2]; patients with 4 or more involved axillary nodes n = 784) was 0.68 (0.53-0.87).
